Values belong to the compound of their own block, whether it stands above or below them.
Legend:
[1] = molecular target: RAC-alpha serine/threonine-protein kinase (Homo sapiens, UniProt P31749); test: Inhibition of recombinant AKT1 (104 to 480 end residues) (unknown origin) catalytic domain expressed in Sf21 cells using peptide substrate incubated for 1 hr in presence of ATP by caliper off-chip mobility shift assay
[2] = Half life in ICR mouse at 2 mg/kg, iv measured upto 24 hrs by UPLC-MS/MS analysis; assay type: ADME, organism-based; conditions: in vivo
[3] = AUC (0 to infinity) in overnight fasted ICR mouse at 10 mg/kg, po measured upto 24 hrs by UPLC-MS/MS analysis; assay type: ADME, organism-based; set-up: dose 10 mg/kg, time < 24 hrs, route po; conditions: in vivo
[4] = Clearance in ICR mouse at 2 mg/kg, iv measured upto 24 hrs by UPLC-MS/MS analysis; assay type: ADME, organism-based; conditions: in vivo
[5] = Oral bioavailability in overnight fasted ICR mouse at 10 mg/kg measured upto 24 hrs by UPLC-MS/MS analysis; assay type: ADME, organism-based; conditions: in vivo
[6] = Plasma protein binding in mouse at 1 to 100 uM incubated for 16 hrs by UPLC-MS/MS analysis; assay type: ADME, cell-free; conditions: dose 1-100 µM, read-out: PPB (converted)
LNCaP [7] = test: In vivo antitumor activity against human LNCap cells xenografted in NCG mouse assessed as tumor growth inhibition at 50 mg/kg administered once daily for 18 to 21 days relative to control; assay type: functional; conditions: time 18-21 day, read-out: TGI
[8] = Tmax in overnight fasted ICR mouse at 10 mg/kg, po measured upto 24 hrs by UPLC-MS/MS analysis; assay type: ADME, organism-based; conditions: in vivo
[9] = Plasma protein binding in human at 1 to 100 uM incubated for 16 hrs by UPLC-MS/MS analysis; assay type: ADME, cell-free; conditions: dose 1-100 µM, read-out: PPB (converted)
[10] = Plasma protein binding in human assessed as unbound fraction at 1 to 100 uM incubated for 16 hrs by UPLC-MS/MS analysis; assay type: ADME, cell-free; conditions: dose 1-100 µM
[11] = Cmax in overnight fasted ICR mouse at 10 mg/kg, po measured upto 24 hrs by UPLC-MS/MS analysis; assay type: ADME, organism-based; set-up: dose 10 mg/kg, time < 24 hrs, route po; conditions: in vivo
Cytochrome P450 3A4 = Cytochrome P450 3A4 (Homo sapiens, UniProt P08684); test: Inhibition of CYP3A4 in human liver microsomes at 0.01 to 30 uM […] in presence of NADPH by UPLC-MS/MS analysis; assay type: ADME, Microsome
Cytochrome P450 2C9 = Cytochrome P450 2C9 (Homo sapiens, UniProt P11712); test: Inhibition of CYP2C9 in human liver microsomes at 0.01 to 30 uM using diclofenac as substrate in presence of NADPH by UPLC-MS/MS analysis; assay type: ADME, Microsome
[12] = MRT(0 to t) in overnight fasted ICR mouse at 10 mg/kg, po measured upto 24 hrs by UPLC-MS/MS analysis; assay type: ADME, organism-based; conditions: in vivo
Cytochrome P450 2C19 = Cytochrome P450 2C19 (Homo sapiens, UniProt P33261); test: Inhibition of CYP2C19 in human liver microsomes at 0.01 to 30 uM using mephenytoin as substrate in presence of NADPH by UPLC-MS/MS analysis; assay type: ADME, Microsome
[13] = AUC (0 to infinity) in ICR mouse at 2 mg/kg, iv measured upto 24 hrs by UPLC-MS/MS analysis; assay type: ADME, organism-based; set-up: dose 2 mg/kg, time < 24 hrs, route iv; conditions: in vivo
Cytochrome P450 1A2 = molecular target: T1, Cytochrome P450 1A2 (Homo sapiens, UniProt P05177); test: Inhibition of CYP1A2 in human liver microsomes at 0.01 to 30 uM […] in presence of NADPH by UPLC-MS/MS analysis; assay type: ADME, Microsome
T1 sequence (P05177 whole entry): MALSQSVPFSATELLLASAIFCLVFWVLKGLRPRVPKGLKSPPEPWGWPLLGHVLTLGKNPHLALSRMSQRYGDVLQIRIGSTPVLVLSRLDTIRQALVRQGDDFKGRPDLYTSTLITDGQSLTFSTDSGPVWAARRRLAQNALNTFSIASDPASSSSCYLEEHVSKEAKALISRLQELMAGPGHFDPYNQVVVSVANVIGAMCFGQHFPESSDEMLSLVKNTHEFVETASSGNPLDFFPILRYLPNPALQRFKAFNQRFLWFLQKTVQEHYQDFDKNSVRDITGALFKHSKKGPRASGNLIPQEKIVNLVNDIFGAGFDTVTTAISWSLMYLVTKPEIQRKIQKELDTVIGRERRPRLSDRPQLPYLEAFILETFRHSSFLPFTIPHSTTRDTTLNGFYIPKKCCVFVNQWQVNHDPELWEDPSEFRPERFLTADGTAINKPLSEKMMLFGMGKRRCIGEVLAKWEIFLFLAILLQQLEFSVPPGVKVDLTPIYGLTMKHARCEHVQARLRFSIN

LNCaP [14] = test: Antiproliferative activity against human LNcap assessed as reduction in cell viability incubated for 72 hrs by Cell Titer Glo luminescent assay
Cytochrome P450 2D6 = Cytochrome P450 2D6 (Homo sapiens, UniProt P10635); test: Inhibition of CYP2D6 in human liver microsomes at 0.01 to 30 uM using dextromethorphan as substrate in presence of NADPH by UPLC-MS/MS analysis; assay type: ADME, Microsome
CAL-51 = test: cells; conditions: Homo sapiens, CAL-51, 72 h
C-33-A = test: cells; conditions: Homo sapiens, 72 h
PC-3 = test: cells; conditions: Homo sapiens, PC-3, 72 h
T47D = test: cells; conditions: Homo sapiens, 72 h
ZR-75-1 = test: cells; conditions: Homo sapiens, ZR-75-1, 72 h
TOV21G = test: cells; conditions: Homo sapiens, 72 h
cells = conditions: Homo sapiens, COLO 704, 72 h
RL95-2 = test: cells; conditions: Homo sapiens, RL95-2, 72 h

Sequence of Cytochrome P450 2C19 (P33261 whole entry): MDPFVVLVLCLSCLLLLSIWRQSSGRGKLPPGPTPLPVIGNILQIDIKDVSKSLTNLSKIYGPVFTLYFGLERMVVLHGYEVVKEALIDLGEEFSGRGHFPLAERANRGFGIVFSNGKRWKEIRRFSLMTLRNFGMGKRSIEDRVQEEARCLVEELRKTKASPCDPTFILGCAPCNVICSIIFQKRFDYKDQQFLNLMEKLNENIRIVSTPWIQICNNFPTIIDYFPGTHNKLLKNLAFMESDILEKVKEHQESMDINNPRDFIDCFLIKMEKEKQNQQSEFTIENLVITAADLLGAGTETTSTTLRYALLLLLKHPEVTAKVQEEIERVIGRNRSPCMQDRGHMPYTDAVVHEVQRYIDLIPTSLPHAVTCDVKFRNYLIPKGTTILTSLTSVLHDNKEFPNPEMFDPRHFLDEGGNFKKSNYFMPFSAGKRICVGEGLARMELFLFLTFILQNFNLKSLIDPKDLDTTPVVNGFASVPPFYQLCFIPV
Sequence of Cytochrome P450 3A4 (P08684 whole entry): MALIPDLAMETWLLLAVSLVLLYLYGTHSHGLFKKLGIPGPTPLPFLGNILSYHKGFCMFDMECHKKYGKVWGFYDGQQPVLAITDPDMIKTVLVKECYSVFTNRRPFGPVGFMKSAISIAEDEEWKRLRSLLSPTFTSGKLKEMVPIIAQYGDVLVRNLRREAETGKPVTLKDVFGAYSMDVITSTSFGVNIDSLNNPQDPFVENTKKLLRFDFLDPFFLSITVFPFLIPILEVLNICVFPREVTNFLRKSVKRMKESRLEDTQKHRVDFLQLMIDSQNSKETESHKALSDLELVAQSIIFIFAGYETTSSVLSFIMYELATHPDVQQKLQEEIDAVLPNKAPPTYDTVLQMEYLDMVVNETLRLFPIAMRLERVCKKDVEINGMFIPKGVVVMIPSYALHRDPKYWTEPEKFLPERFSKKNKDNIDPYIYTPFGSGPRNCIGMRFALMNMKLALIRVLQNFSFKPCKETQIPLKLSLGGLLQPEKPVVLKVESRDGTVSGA
Sequence of Cytochrome P450 2C9 (P11712 whole entry): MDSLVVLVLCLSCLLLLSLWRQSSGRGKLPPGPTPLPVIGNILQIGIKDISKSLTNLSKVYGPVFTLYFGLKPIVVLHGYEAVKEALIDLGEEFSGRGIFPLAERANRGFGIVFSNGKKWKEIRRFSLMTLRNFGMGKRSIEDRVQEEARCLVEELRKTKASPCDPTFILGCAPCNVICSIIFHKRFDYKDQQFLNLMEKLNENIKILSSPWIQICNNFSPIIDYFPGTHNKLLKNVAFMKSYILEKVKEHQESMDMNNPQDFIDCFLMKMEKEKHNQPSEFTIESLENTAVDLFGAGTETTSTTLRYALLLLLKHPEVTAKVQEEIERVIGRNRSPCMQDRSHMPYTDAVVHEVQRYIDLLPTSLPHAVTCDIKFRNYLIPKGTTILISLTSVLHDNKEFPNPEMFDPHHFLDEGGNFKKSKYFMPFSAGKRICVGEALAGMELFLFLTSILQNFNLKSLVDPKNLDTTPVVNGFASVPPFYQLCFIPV
Sequence of RAC-alpha serine/threonine-protein kinase (P31749 whole entry, the tested form may be a part): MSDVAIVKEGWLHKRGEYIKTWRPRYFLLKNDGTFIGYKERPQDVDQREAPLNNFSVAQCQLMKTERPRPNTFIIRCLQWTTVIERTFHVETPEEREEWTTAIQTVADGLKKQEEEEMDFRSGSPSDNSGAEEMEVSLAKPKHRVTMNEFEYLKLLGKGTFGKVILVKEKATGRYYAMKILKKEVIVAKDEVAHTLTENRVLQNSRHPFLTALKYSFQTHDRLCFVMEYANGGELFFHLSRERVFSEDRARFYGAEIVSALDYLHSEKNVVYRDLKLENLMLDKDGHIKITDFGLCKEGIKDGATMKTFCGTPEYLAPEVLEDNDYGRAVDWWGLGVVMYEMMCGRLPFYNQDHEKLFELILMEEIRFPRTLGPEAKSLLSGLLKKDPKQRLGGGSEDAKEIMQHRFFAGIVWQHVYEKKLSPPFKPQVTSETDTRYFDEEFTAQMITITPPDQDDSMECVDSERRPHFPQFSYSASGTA
Sequence of Cytochrome P450 2D6 (P10635 whole entry): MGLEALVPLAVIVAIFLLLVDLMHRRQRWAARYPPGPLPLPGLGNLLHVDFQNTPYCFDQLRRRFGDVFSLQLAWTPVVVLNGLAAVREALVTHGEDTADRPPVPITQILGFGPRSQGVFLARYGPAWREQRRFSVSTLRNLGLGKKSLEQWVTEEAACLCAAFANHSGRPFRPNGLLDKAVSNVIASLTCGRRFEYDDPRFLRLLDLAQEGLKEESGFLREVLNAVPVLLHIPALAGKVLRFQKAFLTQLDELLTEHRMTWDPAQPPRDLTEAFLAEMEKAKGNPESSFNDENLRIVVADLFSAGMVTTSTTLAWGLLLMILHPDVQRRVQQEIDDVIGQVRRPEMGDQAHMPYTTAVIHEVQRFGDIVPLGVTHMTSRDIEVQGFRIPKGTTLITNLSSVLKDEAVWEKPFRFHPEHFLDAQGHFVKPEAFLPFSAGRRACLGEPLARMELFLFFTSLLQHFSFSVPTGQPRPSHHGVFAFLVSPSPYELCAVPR

SMILES: Cc1c(CO)ncnc1N1CCN(C(=O)[C@H](CNC(C)C)c2ccc(Cl)cc2)CC1
IC50 [1]: > 1000 nM

SMILES: CC(C)NC[C@@H](C(=O)N1[C@@H]2CC[C@H]1CN(c1ncnc3c1[C@H](C)OC(=O)N3)C2)c1ccc(Cl)cc1
IC50 [1]: 0.6 nM
AUC(0-inf) [3]: 727 ng·h/mL
IC50 (LNCaP [14]): 84 nM

SMILES: CC(C)NC[C@@H](C(=O)N1CC2CCC(C1)N2c1ncnc2c1[C@H](C)CC(=O)N2)c1ccc(Cl)cc1
AUC(0-inf) [3]: 1480 ng·h/mL
IC50 (LNCaP [14]): 446 nM

SMILES: CC(C)NC[C@@H](C(=O)N1C2CCC1CN(c1ncnc3c1[C@H](C)CC(=O)N3)C2)c1ccc(Cl)cc1
AUC(0-inf) [3]: 911 ng·h/mL
IC50 (LNCaP [14]): 79 nM

SMILES: CC(C)NC[C@@H](C(=O)N1CCN(c2ncnc3c2[C@H](C)C[C@H]3O)CC1)c1ccc(Cl)cc1 [IPATASERTIB]
IC50 (CAL-51): 265 nM
IC50 (C-33-A): 726 nM
IC50 (PC-3): 3540 nM
IC50 (T47D): 328 nM
IC50 (ZR-75-1): 1320 nM
IC50 (TOV21G): 715 nM
IC50 (cells): 945 nM
IC50 (RL95-2): 331 nM

SMILES: CC(C)NC[C@@H](C(=O)N1C[C@H]2CC[C@@H](C1)N2c1ncnc2c1[C@H](C)OC(=O)N2)c1ccc(Cl)cc1
IC50 [1]: 1.6 nM
AUC(0-inf) [3]: 3030 ng·h/mL
inhibition in vivo at 50 mg/kg (LNCaP [7]): 28%
IC50 (LNCaP [14]): 236 nM

SMILES: CC(C)NC[C@@H](C(=O)N1C[C@H]2CC[C@@H](C1)N2c1ncnc2c1N(C)CC(=O)N2)c1ccc(Cl)cc1
IC50 [1]: 30 nM

SMILES: CC(C)NC[C@@H](C(=O)N1C2CCC1CN(c1ncnc3c1N(C)CC(=O)N3)C2)c1ccc(Cl)cc1.O=CO
AUC(0-inf) [3]: 2290 ng·h/mL
inhibition in vivo at 50 mg/kg (LNCaP [7]): 34.5%
IC50 (LNCaP [14]): 279 nM

SMILES: CC(C)NC[C@@H](C(=O)N1CCN(c2cc[nH]c(=O)c2)CC1)c1ccc(Cl)cc1
IC50 [1]: > 1000 nM

Further lines, with some results ahead:

IC50 [1]: > 1000 nM
SMILES: CC(C)NC[C@@H](C(=O)N1CCN(c2ncnc3c2[C@@H](C)CC(=O)N3)CC1)c1ccc(Cl)cc1

half-life [2]: 1.56 h
IC50 [1]: 1.6 nM
AUC(0-inf) [3]: 241 ng·h/mL
clearance [4]: 178 mL/min/kg
bioavailability [5]: 26.6%
fraction unbound at 16 h, up to 100 µM [6]: 0.477
Tmax [8]: 2 h
fraction unbound at 16 h, up to 100 µM [9]: 0.513
fraction unbound at 16 h, up to 100 µM [10]: 0.513
Cmax [11]: 84.3 ng/mL
IC50 (Cytochrome P450 3A4): 39200 nM
IC50 (Cytochrome P450 2C9): > 50000 nM
MRT last at 24 h [12]: 2.23 h
IC50 (Cytochrome P450 2C19): > 50000 nM
AUC(0-inf) [13]: 181 ng·h/mL
IC50 (Cytochrome P450 1A2): 25200 nM
IC50 (LNCaP [14]): 103 nM
IC50 (Cytochrome P450 2D6): > 50000 nM
SMILES: CC(C)NC[C@@H](C(=O)N1CCN(c2ncnc3c2[C@H](C)CC(=O)N3)CC1)c1ccc(Cl)cc1
inhibition in vivo at 50 mg/kg (LNCaP [7]): 50%

IC50 [1]: 6.8 nM
IC50 (Cytochrome P450 3A4): 10100 nM
IC50 (Cytochrome P450 2C9): > 30000 nM
IC50 (Cytochrome P450 2C19): > 30000 nM
IC50 (Cytochrome P450 1A2): 6480 nM
IC50 (Cytochrome P450 2D6): > 30000 nM
SMILES: C[C@@H]1CC(=O)Nc2ncnc(N3CCN(C(=O)[C@H](CN)c4ccc(Cl)cc4)[C@@H]4C[C@@H]43)c21

IC50 [1]: 951 nM
SMILES: CC(C)NC[C@@H](C(=O)N1CC=C(c2ncnc3c2[C@H](C)CC(=O)N3)CC1)c1ccc(Cl)cc1

IC50 [1]: 414 nM
SMILES: CC(C)NC[C@@H](C(=O)N1CC2CC1CN2c1ncnc2c1[C@H](C)CC(=O)N2)c1ccc(Cl)cc1 (stereo partly specified)

IC50 [1]: > 1000 nM
SMILES: CC(C)NC[C@@H](C(=O)N1CC2(C1)CN(c1ncnc3c1[C@H](C)CC(=O)N3)C2)c1ccc(Cl)cc1

IC50 [1]: 1.6 nM
AUC(0-inf) [3]: 947 ng·h/mL
IC50 (LNCaP [14]): 131 nM
SMILES: [2H]C1([2H])N(C(=O)[C@H](CNC(C)C)c2ccc(Cl)cc2)C([2H])([2H])C([2H])([2H])N(c2ncnc3c2[C@H](C)CC(=O)N3)C1([2H])[2H]

IC50 [1]: 1.3 nM
IC50 (Cytochrome P450 3A4): 1810 nM
IC50 (Cytochrome P450 2C9): 30000 nM
IC50 (Cytochrome P450 2C19): 30000 nM
IC50 (Cytochrome P450 1A2): 30000 nM
IC50 (Cytochrome P450 2D6): 30000 nM
SMILES: COC1CCC(NC[C@@H](C(=O)N2CCN(c3ncnc4c3[C@H](C)CC(=O)N4)[C@H]3C[C@H]32)c2ccc(Cl)cc2)CC1 (stereo partly specified)

IC50 [1]: 0.6 nM
AUC(0-inf) [3]: 2580 ng·h/mL
bioavailability [5]: 26.5%
IC50 (LNCaP [14]): 201 nM
SMILES: CC(C)NC[C@@H](C(=O)N1CCN(c2ncnc3c2[C@H](C)OC(=O)N3)[C@H]2C[C@H]21)c1ccc(Cl)cc1
inhibition in vivo at 50 mg/kg (LNCaP [7]): 94.1%

IC50 [1]: 220 nM
SMILES: CC(C)NC[C@@H](C(=O)N1CCN(c2ncnc3c2[C@H](C)CC(=O)N3)C[C@@H]1C)c1ccc(Cl)cc1

IC50 [1]: > 1000 nM
SMILES: CC(C)NC[C@@H](C(=O)N1CCC(c2ncnc3c2[C@H](C)CC(=O)N3)CC1)c1ccc(Cl)cc1

IC50 (Cytochrome P450 3A4): 1090 nM
IC50 (Cytochrome P450 2C9): > 30000 nM
IC50 (Cytochrome P450 2C19): > 30000 nM
IC50 (Cytochrome P450 1A2): > 30000 nM
IC50 (Cytochrome P450 2D6): > 30000 nM
SMILES: C[C@@H]1CC(=O)Nc2ncnc(N3CCN(C(=O)[C@H](CNC4CC4)c4ccc(Cl)cc4)[C@@H]4C[C@@H]43)c21

IC50 [1]: 4.1 nM
IC50 (Cytochrome P450 3A4): 4330 nM
IC50 (Cytochrome P450 2C9): > 30000 nM
IC50 (Cytochrome P450 2C19): > 30000 nM
IC50 (Cytochrome P450 1A2): > 30000 nM
IC50 (Cytochrome P450 2D6): > 30000 nM
SMILES: C[C@@H]1CC(=O)Nc2ncnc(N3CCN(C(=O)[C@H](CNC4C5COCC54)c4ccc(Cl)cc4)[C@@H]4C[C@@H]43)c21 (stereo partly specified)

Reference: ChEMBL document CHEMBL5154942, “Discovery of Clinical Candidate NTQ1062 as a Potent and Bioavailable Akt Inhibitor for the Treatment of Human Tumors” (J Med Chem, 2022)
